In patent US9790496B2, “Microrna compounds and methods for modulating MIR-21 activity” (Regulus Therapeutics, Inc., priority 2011, dated 2017):
Values joined by “and” are separate entries in the source; they are usually repeats but may differ in a detail not shown here. Identical values can stand only once. Strand notation (5' to 3'): a small letter for the sugar, then the base; units joined by * are phosphorothioate-linked, units joined directly phosphodiester-linked; [ ] holds rarer units or linkages, { } end groups; capitals alone tell only the bases. e = 2'-O-(2-methoxyethyl) (MOE); l = locked nucleic acid (LNA); k = constrained ethyl (cEt); [5mC] = 5-methylcytosine; d = 2'-deoxy (DNA)

Key:
[1] = tested on: miR-21; assay: miR-21 luciferase sensor assay in Hela cells; assay type: cell-based; details: for inhibition of miR-21 in the luciferase assay (in words) / luciferase value normalized to beta-galactosidase activity: Hela cells
Description: The compounds were assessed for miR-21 inhibitory activity in a luciferase assay. A microRNA luciferase sensor construct was engineered using pGL3-MCS2 (Promega). The construct was introduced into Hela cells to test the ability of anti-miR compounds to inhibit activity of miR-21. In this assay, miR-21 present in the Hela cells binds to its cognate site(s) in the luciferase sensor construct, and suppresses luciferase expression. When the appropriate anti-miR is introduced into the cells, it binds to miR-21 and relieves suppression of luciferase expression. Thus, in this assay anti-miRs that are effective inhibitors of miR-21 expression will cause an increase in luciferase expression.
Day 1: Hela cells (ATCC), stably transfected with a luciferase construct engineered to contain a sequence complementary of miR-21, were seeded in T-170 flasks (BD Falcon) at 3.5*10^6 cells/flask. Hela cells were grown in Dulbecco's Modified Eagle Medium with High Glucose (Invitrogen).
Day 2: Each flask of Hela cells was transfected with 0.5 ug of a phRL sensor plasmid (Promega) expressing Renilla to be used in normalization. Hela cells were transfected using 20 ul Lipofectamine 2000/flask (Invitrogen). After 4 hours of transfection, cells were washed with PBS and trypsinized. Hela cells were plated at 40 k/well in 24 well plates (BD Falcon) and left overnight.
Day 3: Hela cells were transfected with anti-miRs using Lipofectin (Invitrogen) at 2.5 ul Lipofectin/100 nM ASO/ml Opti-MEM I Reduced Serum Medium (Invitrogen) for 4 hours. After ASO transfection, Hela cells were refed with Dulbecco's Modified Eagle Medium with High Glucose (Invitrogen).
Day 4: Hela cells are passively lysed and luciferase activity measured using the Dual-Luciferase Reporter Assay System (Promega).
The luciferase assay was performed to test the ability of anti-miRs with the nucleoside patterns described herein to inhibit the activity of miR-21. Results were compared to a ‘mock’ treatment, in which cells received no anti-miR treatment. The experiment was repeated and results of two experimental replicates are shown in the following Table B, as the luciferase value normalized to beta-galactosidase activity.
The luciferase assay was performed as described herein to test the ability of anti-miRs in Table F to inhibit the activity of miR-21. Results were compared to a ‘mock’ treatment, in which cells received no anti-miR treatment. The experiment was repeated and results of two experimental replicates are shown in the following Table D, as fold change in luciferase value relative to the mock treatment.

[2] = tested on: collagen 1A1 and collagen 3A1 expression in kidney, unilateral ureteral obstruction (UUO) model; assay: UUO model of kidney fibrosis: kidney collagen 1A1 and collagen 3A1 expression by real-time PCR; assay type: in vivo, mice; details: for Collagen 1A1 (Normalized Expression), individual animal / Collagen 3A1 (Normalized Expression), individual animal: UUO, 20 mg/kg at days -3, -1, +5 (prophylactic), kidney at day 11, real-time PCR normalized to GAPDH then sham, 20 mg/kg; for reduction in collagen expression (in words): meta-analysis of repeated UUO studies, 20 mg/kg at days -3, -1, +5
Description: Unilateral ureteral obstruction (UUO) is a well-established experimental model of renal injury leading to interstitial fibrosis, and thus is used as an experimental model that is reflective of human kidney disease. UUO is induced by surgically ligating a single ureter. As fibrosis is characterized by an increase in collagen, the presence and extent of kidney fibrosis may be determined by measuring collagen content. Both collagen 1A1 (Col 1A1) and collagen 3A1 (Col 3A1) are measured to assess collagen content. Kidney fibrosis may be visualized by staining tissue samples with picro-sirius red to detect increases in collagen content. Kidney fibrosis may also be observed by measuring the amount of hydroxyproline, which is a major component of collagen, in a sample.
The cEt-containing anti-miR-21 compounds found to be active in the luciferase assay were tested in the UUO model of kidney fibrosis. 25919 comprising 2′-MOE and 2′-fluoro modifications is known to inhibit miR-21 activity in vivo and was included as a positive control. Groups of 8 animals each were treated as follows: UUO only, UUO with PBS, or UUO with anti-miR-21 compound. Relative to the day of the UUO procedure, PBS or anti-miR-21 compound was administered at days −3, −1, and +5. Anti-miR-21 compounds were administered at a dose of 20 mg/kg. As the anti-miR compounds were administered prior to the UUO procedure, this dosing regimen is considered a prophylactic treatment. At day 11, animals were sacrificed and kidney was isolated for measurement of collagen expression. Collagen expression was measured by real-time PCR and normalized first to GAPDH and then to the sham control animals. […]

[3] = concentration of anti-miR compound 0.2 (unit not given)
[4] = concentration of anti-miR compound 0.6 (unit not given)
[5] = concentration of anti-miR compound 1.9 (unit not given)
[6] = concentration of anti-miR compound 5.6 (unit not given)
[7] = concentration of anti-miR compound 16.7 (unit not given)
[8] = concentration of anti-miR compound 50.0 (unit not given)
[9] = 4 nM oligonucleotide, mock transfection 50
[10] = 20 nM oligonucleotide, mock transfection 47
[11] = 100 nM oligonucleotide, mock transfection 40
[12] = 500 nM oligonucleotide, mock transfection 39
[13] = .16 nM oligonucleotide, mock transfection 45
[14] = .8 nM oligonucleotide, mock transfection 33

Molecule | inhibition of miR-21 in the luciferase assay (in words) [1] | fold change in luciferase value relative to the mock treatment [1, 3] | fold change in luciferase value relative to the mock treatment [1, 4] | fold change in luciferase value relative to the mock treatment [1, 5] | fold change in luciferase value relative to the mock treatment [1, 6] | fold change in luciferase value relative to the mock treatment [1, 7] | fold change in luciferase value relative to the mock treatment [1, 8] | luciferase value normalized to beta-galactosidase activity [1, 9] | luciferase value normalized to beta-galactosidase activity [1, 10] | luciferase value normalized to beta-galactosidase activity [1, 11] | luciferase value normalized to beta-galactosidase activity [1, 12] | luciferase value normalized to beta-galactosidase activity [1, 13] | luciferase value normalized to beta-galactosidase activity [1, 14] | also measured
AE^MeCSAT^MeCSAGT^MeCSTGATSAAG^MeCSTAE (antisense ACATCAGTCTGATAAGCTA; modified nucleosides coded in name, code key not given here) [Compound 25922, 25070 variant: each cytosine is a 5-methyl cytosine] | demonstrated inhibition of miR-21 in a dose-dependent manner | 1.02 | 1.10 | 1.34 | 8.81 | 11.60 | 11.46 |  |  |  |  |  |  | 
Ae^MeCAST^MeCAGST^MeCTGASTASAGS^MeCTAe (ACATCAGTCTGATAAGCTA; all C 5-methyl, all phosphorothioate, sugars by position not given here; further chemistry not fully specified) [Compound 25071] |  |  |  |  |  |  |  | 50 | 63 | 53 | 42 | 48 | 36 | 
AeTe^MeCeAeGeTe^MeCeTeGSAsTeASASGe^MeCeUSAS [Compound 25731] |  |  |  |  |  |  |  | 32 | 39 | 38 | 59 | 34 | 45 | 
AE^MeCSAT^MeCSAGT^MeCSTGATSAAG^MeCSTAS (antisense eA*k[5mC]*dA*dT*k[5mC]*dA*dG*dT*k[5mC]*dT*dG*dA*kT*dA*dA*dG*k[5mC]*dT*kA) [Compound 25924, 25070 variant: 3'-terminal cEt nucleoside and each cytosine is a 5-methyl cytosine] | demonstrated inhibition of miR-21 in a dose-dependent manner | 1.10 | 1.25 | 1.37 | 7.80 | 13.01 | 8.99 |  |  |  |  |  |  | 
AE^MeCLAETE^MeCLAEGETE^MeCLTEGEAE^MeTLAEAEGE^MeCLTEAE (antisense eA*l[5mC]*eA*eT*l[5mC]*eA*eG*eT*l[5mC]*eT*eG*eA*lT*eA*eA*eG*l[5mC]*eT*eA) [Compound 25117, LNA variant: each non-bicyclic nucleoside is 2'-MOE, each cytosine 5-methyl cytosine] |  | 1.05 | 1.15 | 1.14 | 3.64 | 7.36 | 2.91 |  |  |  |  |  |  | 
TE^MeCAACSATCSAGTCSTGAUSAAGCSTAE (TCAACATCAGTCTGATAAGCTA; listed as DNA, chemistry not fully specified) [Compound 25082] | demonstrated inhibition of miR-21 in a dose-dependent manner |  |  |  |  |  |  |  |  |  |  | 70 | 89 | Collagen 1A1 (Normalized Expression), individual animal [2]: 122.2 and 188.3 and 102.5 and 67.6 and 40.6 and 44.1 and 73.8 and 94.7; Collagen 3A1 (Normalized Expression), individual animal [2]: 62.9 and 78.9 and 82.2 and 43.8 and 32.6 and 34.3 and 75.8 and 62.5; reduction in collagen expression (in words) [2]: did not consistently demonstrate a reduction in collagen expression
AECSAETECSAEGETECSTEGEAEUSAEAEGECSTEAE (ACATCAGTCTGATAAGCTA; S-cEt/2'-MOE, phosphorothioate, chemistry not fully specified) [Compound 25072] | demonstrated inhibition of miR-21 in a dose-dependent manner |  |  |  |  |  |  | 76 | 86 |  |  | 40 | 49 | Collagen 1A1 (Normalized Expression), individual animal [2]: 96.2 and 85.7 and 127.4 and 100.0 and 159.2 and 120.5 and 108.0; Collagen 3A1 (Normalized Expression), individual animal [2]: 69.4 and 54.5 and 58.8 and 69.2 and 93.8 and 65.8 and 46.9; reduction in collagen expression (in words) [2]: did not consistently demonstrate a reduction in collagen expression
AE^MeCSAETE^MeCSAEGETE^MeCSTEGEAE^MeTSAEAEGE^MeCSTEAE (antisense eA*k[5mC]*eA*eT*k[5mC]*eA*eG*eT*k[5mC]*eT*eG*eA*kT*eA*eA*eG*k[5mC]*eT*eA; further chemistry not given here) [Compound 25116, 25070 variant: each non-bicyclic nucleoside is 2'-MOE, each cytosine 5-methyl cytosine] |  | 1.06 | 0.98 | 1.06 | 2.47 | 5.64 | 1.98 |  |  |  |  |  |  | 
AeTe^MeCeASGSTe^MeCeTeGSASTeAeASGS^MeCeTeAe [Compound 25077] |  |  |  |  |  |  |  | 45 | 33 | 42 | 40 | 34 | 33 | 
CCCCC1=NC2(CCCC2)C(=O)N1Cc1ccc(-c2ccccc2-c2nnn[nH]2)cc1 [irbesartan, reference compound] |  |  |  |  |  |  |  |  |  |  |  |  |  | reduction in Col3a1 expression (in words) ([2]; UUO comparison with irbesartan, 25070 s.c. 20 mg/kg days -5, -2, +3, irbesartan perorally daily days 0-7, day 10): statistically significant reductions; reduction in Col1A1 expression relative to saline-treated animals (in words) ([2]; UUO comparison with irbesartan, 25070 s.c. 20 mg/kg days -5, -2, +3, irbesartan perorally daily days 0-7, day 10, p<0.05 one-way ANOVA): did not yield a statistically significant reduction
Te^MeCASA^MeCAST^MeCAGST^MeCTGASTAAGS^MeCTAe (antisense TCAACATCAGTCTGATAAGCTA; all C 5-methyl, all phosphorothioate, sugars by position not given here; further chemistry not fully specified) [Compound 25067] |  |  |  |  |  |  |  | 43 | 41 | 30 | 42 | 38 | 23 | 
